Test results published in US11953435B2, “Zinc-responsive fluorophores” (Northwestern University, priority 2019, dated 2024).
“Also recorded” adds a separate entry of the source.

Tests used:
MII egg [1] = assay: Confocal imaging of zinc in live MII eggs; type: cell-based, mouse
Excerpt: [formula] [formula] [formula] where r(t) is the anisotropy, P(t) is the polarization, Ivv and Ivh are intensities with polarization in the vertical plane and the excitation in the vertical and horizontal planes respectively, Ihv and Ihh are intensities with polarization in the horizontal plane and the excitation in the vertical and horizontal planes respectively, and G is a g-factor that corrects for instrument sensitivity in the horizontal and vertical planes. Metal content of NMR samples. Inductively coupled plasma mass spectrometry (ICP-MS) was performed on a Thermo iCAP Q ICP-MS. 1 mg/mL of ZincBY-1 or ZincBY-4 in acetonitrile-d3 or acetonitrile-d3 only was evaporated overnight at 70° C. 150 μL of HNO3 was added and the samples were digested overnight at 70° C. Samples were diluted to a final nitric acid concentration of 3%. ICP-MS was operated in collision cell mode to reduce polyatomic interferences. An internal standard comprising ^7Li, ^89Y, and ^115In was used. Each sample was acquired using one survey run (10 sweeps) and three main (peak jumping) runs (100 sweeps). Data was fit to a standard curve using a standard containing ^45Sc, […], ^51V, ^52Cr, ^55Mn, ^56Fe, ^59Co, ^58Ni, ^63Cu, and ^64Zn from 5 ppb to 1000 ppb. Only ^56Fe and ^64Zn were detected in the samples above background levels. Computational Analysis of ZincBY-1 and ZincBY-4. All density functional theory (DFT) calculations were performed using version 4.0.1 of the ORCA electronic structure package (Ref. B6; incorporated by reference in its entirety). Guided by the results of earlier studies on BODIPY derivatives (Ref. B7; incorporated by reference in its entirety), the PBE0 functional (Refs. B8-B10; incorporated by reference in their entireties) was used to optimize the geometries of all molecules studied, while time dependent DFT (TD-DFT) calculations and charge analysis through the CHarges from ELectrostatic Potentials using a Grid-based method (CHELPG) (Ref. B11; incorporated by reference in its entirety) were performed with the oB97-XD3 functional (Ref. B12; incorporated by reference in its entirety). All calculations utilized the def2-TZVP basis set (Ref B13; incorporated by reference in its entirety) with the resolution of the identity approximation coupled with the chain of spheres exchange method (RIJCOSX) (Refs. B14-B16; incorporated by reference in their entireties), using the def2/J auxiliary basis (Ref B17; incorporated by reference in its entirety). Implicit solvation effects were included through the conductor like polarizable continuum model (CPCM) (Ref B18; incorporated by reference in its entirety). Calculated spectra were broadened by Gaussians of width 0.2 eV, and red shifted by 0.64 eV to better match the experimental spectra per Momeni and Brown (Ref. B7; incorporated by reference in its entirety). Animals and Egg Collection Mouse. To collect MII-arrested eggs, female mice of at least 5 weeks in age were injected with 5 IU pregnant mare serum gonadotropin (PMSG) followed by 5 IU human chorionic gonadotropin (hCG) 48 hours later. Intact cumulus-oocyte complexes (COCs) were isolated from the oviducts 15 hours after the administration of hCG. Cumulus cells were denuded using 0.3% (w/v) hyaluronidase. Animals were treated in accordance with the US National Institutes of Health Guide for the Care and Use of Laboratory Animals. Food and water were given ad libitum. The Northwestern University Institutional Animal Care and Use Committee approved all the protocols. C. Elegans. Wildtype strain Bristol N2 was used as a control strain in fluorescence microscopy experiments. EU1067: unc-119(ed3) ruIs32[unc-119(+) pie-1^promoter::GFP::H2B] III; ruIs57[unc-119(+) pie-P1^promoter:GFP::tubulin] was used as a marker for cortical granules in fluorescence microscopy experiments. EU1067 was provided by the Caenorhabditis Genetics Center (CGC). […]

MII egg [2] = details: previously reported; cited from earlier work

| Compound | excitation at 488 nm in the MII egg (MII egg [1]; 50 nM probe) | excitation at 552 nm in the MII egg (MII egg [1]; 50 nM probe) | working concentrations lower than those employed with other probes (MII egg [2]) | region of fluorescence emission in MII eggs (MII egg [1]; 50 nM probe, 488 nm excitation) | effect of TPEN on fluorescence in stained MII eggs (MII egg [1]; TPEN 5 μM) | spectral overlap with TubulinTracker Green in the MII egg (MII egg [1]; single excitation at 488 nm) | fluorescence change on chemical activation (ionomycin) of MII eggs (MII egg [1]; time lapse imaging, ionomycin 5 μM) | usable working concentration (MII egg [1]; where other probes require micromolar amounts) [nM] | Stokes shift in cells (MII egg [1]; within cells) [nm] |
| --- | --- | --- | --- | --- | --- | --- | --- | --- | --- |
| COc1ccc2n1[B-](F)(F)[N+]1=C(N(CCN(Cc3ccccn3)Cc3ccccn3)Cc3ccccn3)C=CC1=C2c1c(C)cc(C)cc1C [ZincBY-1, reference compound] | Only ZincBY-4 was readily excited at 488 nm | both probes were excitable at 552 nm | 20-200 fold |  |  |  |  |  |  |
| CC(=O)NCCOc1ccc2n1[B-](F)(F)[N+]1=C(N(CCN(Cc3ccccn3)Cc3ccccn3)Cc3ccccn3)C=CC1=C2c1c(C)cc(C)cc1C [ZincBY-4, N-(2-((7-((2-(bis(pyridin-2-ylmethyl)amino)ethyl)(pyridin-2-ylmethyl)amino)-5,5-difluoro-10-mesityl-5H-5λ4,6λ4-dipyrrolo[1,2-c:2′,1′-f][1,3,2]diazaborinin-3-yl)oxy)ethyl)acetamide] | only ZincBY-4 exhibits a strong fluorescence intensity upon excitation at 488 nm; also recorded: Only ZincBY-4 was readily excited at 488 nm | both probes were excitable at 552 nm |  | 575-750 nm | loss of fluorescence signal in the vesicle region; also recorded: loss in fluorescence was observed | virtually no ZincBY-4 emission detected in the 495-530 nm emission channel; also recorded: virtually no spectral overlap between the two probes | increase in fluorescence intensity outside the egg while fluorescence intensity is lost in the periphery region; also recorded: both loss of zinc from the zinc granule region and increase of zinc outside the cell without the need of a second probe was observed | 50 | ~100 |
